Measurements: patent publication US8686049B2, “Agent for increasing testosterone level” (Tohoku University, priority 2006, dated 2014)

Assays:
[1] = Weight and diet intake of rats on experimental diets, Example 2; format: in vivo, rat; conditions: 75 mg/kg in diet, 35 days; for differences in weight: vs control dietary group (FIG. 5); for differences in diet intake: vs control dietary group (FIG. 6)
Description: (§1) As in Example 1, the experimental animals and breeding conditions were ordinary rats (Wistar/Std, eight-week-old males) bred in a breeding room set to a temperature of 23° C., humidity of 50±5%, and a 12-hour light/dark cycle in which lights were turned on at 8 AM and turned off at 8 PM.
(§2) The breeding period was 35 days. Blood was drawn from tail veins every week at 18 o'clock. Measurements of weight, diet intake, testis vitamin K content, testis testosterone concentration, and plasma testosterone concentration were taken. The analysis method was similar to that in Example 1.

[2] = Testis vitamin K concentration, Example 2; format: in vivo, rat; conditions: rats, 75 mg/kg in diet, 35 days (FIG. 7), P<0.05
Description: as §1, §2
Data on testis vitamin K concentration and testosterone concentration was analyzed using the Tukey method. Analysis of changes over time in the blood testosterone concentrations was performed by two-way layout analysis of variance (repeated). In all cases, significant differences was P<0.05.

P450scc = P450scc protein level in testis by Western blot, Example 1; format: in vivo; conditions: rat testis, diet with MK-4 75 mg/kg for 35 days, vs control dietary group (FIG. 3)
Description: (§3) In the breeding method, preparatory breeding was performed in which the rats have free access to feed and water for three to five days. A commercially-available solid feed (product name: MR Labostock by Nosan Corp.) was used. Each experimental diet group includes four rats that were colony-bred in a wire mesh cage. After the preparatory breeding, the rats were fed respective experimental diets and bred for 35 days with free access to feed and water. Blood samples were taken, and testes were removed.
Testes of each of the above-described group that had been stored at −80° C. after dissection were used. Anti-P450scc antibodies were purchased from Chemicon International, Inc.
While being iced in 1 ml of 1× Phosphate buffered saline (PBS, including 10 μl of 100 mM phenyl methane sulfonyl fluoride [PMSF]), 0.2 g of testes were homogenized in the Polytron homogenizer (Biotron). […] A portion of the tissue homogenate was used to determine the quantity of protein. […]
One milliliter of ECLTM Western blotting detection reagent (Amersham Corp.) was poured over the entire membrane. […] Luminescent signals were picked up by an Las-1000 Imaging System (Fujifilm Corp.) and quantity was determined using ImageGauge (trademark) image processing software.
Protein concentration in the tissue homogenates was measured by the Bradford method. […]

[3] = Testis vitamin K analog concentration by HPLC-reduction fluorescence, Example 1 (35-day diet); format: in vivo, rat; conditions: rats, diet with MK-4 75 mg/kg for 35 days, vs low K and control dietary groups (FIG. 1)
Description: Experimental animals: ordinary rats (Wistar/Std, eight-week-old males)
as §3
One gram of tissue was precisely measured and placed in a stoppered brown centrifuge tube. Two milliliters of 66% IPA solution was added. The sample was then homogenized in a Polytron homogenizer (Biotron) on ice. […]
The vitamin K homologues in the prepared HPLC sample are non-fluorescent, oxidized types. […] Quantities of the vitamin K groups were determined by an HPLC-reduction fluorescence method that measures fluorescence intensity of the sample. The vitamin K groups were determined as a relative value of MK-3 that was the internal standard.
In the method, the HPLC-reduction fluorescence method is used in which the non-fluorescent, oxidized type vitamin K groups become fluorescent, reduced types through use of the platinum catalyst column. The fluorescence intensity of the vitamin K groups was measured. […]

[4] = person per day; cited from earlier work

Row | Compound | differences in weight [1] | differences in diet intake [1] | testis MK-4 concentration [2] | P450scc protein level (P450scc) | MK-4 concentration in the testes [3] | tolerable upper intake level [4] [mg]
1 | CC1=C(C/C=C(\C)CCC[C@H](C)CCC[C@H](C)CCCC(C)C)C(=O)c2ccccc2C1=O [vitamin K1, phylloquinone] | could not be observed | could not be observed | significantly increased | – | – | –
2 | CC(C)=CCC/C(C)=C/CC/C(C)=C/CC/C(C)=C/CC1=C(C)C(=O)c2ccccc2C1=O [MK-4, menaquinone-4] | could not be observed | could not be observed | significantly increased | significantly higher | significantly high | –
3 | Vitamin K | – | – | – | – | – | 30
